From ChEMBL document CHEMBL1128756, “The discovery of CP-96,021 and CP-96,486, balanced, combined, potent and orally active leukotriene D4 (LTD4)/platelet activating factor (PAF) receptor antagonists” (Bioorg Med Chem Lett, 1995)

Key:
[1] = biological target: T1, Adenosine receptor A1 (Homo sapiens, UniProt P30542); experiment: Inhibitory concentration against Adenosine A1 receptor
T1 sequence (P30542 whole entry): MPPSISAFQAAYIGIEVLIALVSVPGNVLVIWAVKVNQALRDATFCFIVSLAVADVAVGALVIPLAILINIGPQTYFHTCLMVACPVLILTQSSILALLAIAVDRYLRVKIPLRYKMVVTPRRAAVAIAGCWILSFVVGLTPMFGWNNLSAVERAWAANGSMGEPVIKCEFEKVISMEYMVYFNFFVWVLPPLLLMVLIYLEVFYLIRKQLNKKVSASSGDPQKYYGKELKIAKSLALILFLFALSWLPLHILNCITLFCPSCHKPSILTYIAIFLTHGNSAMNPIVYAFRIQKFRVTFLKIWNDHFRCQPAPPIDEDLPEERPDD

[2] = biological target: T2, Adrenergic receptor alpha-1 (Homo sapiens, UniProt P35348+P25100+P35368); experiment: Inhibitory concentration against Alpha-1 adrenergic receptor; type: protein assay
T2 sequence (P35348 whole entry): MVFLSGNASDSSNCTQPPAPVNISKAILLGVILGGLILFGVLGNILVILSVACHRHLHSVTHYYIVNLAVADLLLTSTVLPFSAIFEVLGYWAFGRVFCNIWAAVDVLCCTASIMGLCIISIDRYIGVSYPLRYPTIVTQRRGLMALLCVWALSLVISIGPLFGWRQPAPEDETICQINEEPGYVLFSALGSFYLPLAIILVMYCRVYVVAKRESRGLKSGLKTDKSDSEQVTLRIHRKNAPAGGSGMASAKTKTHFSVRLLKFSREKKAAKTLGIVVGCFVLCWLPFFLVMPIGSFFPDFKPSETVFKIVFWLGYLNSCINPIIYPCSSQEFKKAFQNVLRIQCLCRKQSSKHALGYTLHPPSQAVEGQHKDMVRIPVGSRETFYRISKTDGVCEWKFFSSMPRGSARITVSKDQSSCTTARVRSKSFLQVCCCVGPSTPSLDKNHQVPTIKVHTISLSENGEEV
T2 sequence (P25100 whole entry): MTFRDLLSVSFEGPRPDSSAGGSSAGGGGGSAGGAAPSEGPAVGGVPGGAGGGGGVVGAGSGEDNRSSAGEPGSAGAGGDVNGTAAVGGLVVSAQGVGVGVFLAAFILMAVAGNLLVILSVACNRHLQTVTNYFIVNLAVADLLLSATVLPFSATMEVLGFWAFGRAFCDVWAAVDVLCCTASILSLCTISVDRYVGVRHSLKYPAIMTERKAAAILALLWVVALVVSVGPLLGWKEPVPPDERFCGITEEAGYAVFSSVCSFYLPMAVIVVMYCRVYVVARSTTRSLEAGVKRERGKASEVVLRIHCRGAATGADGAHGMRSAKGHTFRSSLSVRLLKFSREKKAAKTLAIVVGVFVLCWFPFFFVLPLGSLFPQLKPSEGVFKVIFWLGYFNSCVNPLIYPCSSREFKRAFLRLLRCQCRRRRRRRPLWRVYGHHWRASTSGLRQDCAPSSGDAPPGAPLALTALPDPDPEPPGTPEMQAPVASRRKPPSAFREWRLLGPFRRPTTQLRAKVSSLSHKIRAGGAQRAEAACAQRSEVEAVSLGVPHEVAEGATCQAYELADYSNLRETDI
T2 sequence (P35368 whole entry): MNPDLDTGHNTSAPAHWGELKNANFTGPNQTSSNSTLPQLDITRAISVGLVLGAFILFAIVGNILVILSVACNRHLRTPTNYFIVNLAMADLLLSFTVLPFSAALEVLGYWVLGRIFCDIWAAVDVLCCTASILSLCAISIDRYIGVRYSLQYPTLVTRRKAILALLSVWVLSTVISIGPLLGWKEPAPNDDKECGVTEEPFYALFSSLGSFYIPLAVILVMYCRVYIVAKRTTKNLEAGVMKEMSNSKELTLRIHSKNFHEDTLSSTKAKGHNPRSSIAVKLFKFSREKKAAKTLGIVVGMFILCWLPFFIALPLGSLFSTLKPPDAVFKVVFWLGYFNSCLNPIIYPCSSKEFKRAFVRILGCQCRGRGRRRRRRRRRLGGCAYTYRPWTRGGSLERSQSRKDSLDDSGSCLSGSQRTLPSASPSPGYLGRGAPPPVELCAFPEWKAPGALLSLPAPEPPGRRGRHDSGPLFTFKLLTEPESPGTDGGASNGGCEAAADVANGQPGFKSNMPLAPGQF

[3] = biological target: Adrenergic receptor beta (Homo sapiens, UniProt P08588+P07550+P13945); experiment: Inhibitory concentration against Beta adrenergic receptor; type: protein assay
[4] = biological target: D(2) dopamine receptor (Homo sapiens, UniProt P14416); experiment: Inhibitory concentration against Dopamine receptor D2
[5] = test system: Cavia porcellus; experiment: Combined airway obstructive effect against LTD4 stimulated by aerosolized antigen challenge in guinea pigs after peroral administration; type: functional
[6] = biological target: GABA-A receptor; anion channel; experiment: Inhibition of Gamma-aminobutyric acid receptor; type: protein-complex assay
[7] = test system: Cavia porcellus; experiment: In vivo bronchoprotective effect against LTD4 induced bronchoconstriction in guinea pigs after intravenous administration; type: functional
[8] = biological target: Mu-type opioid receptor (Homo sapiens, UniProt P35372); experiment: Inhibitory concentration against Opioid receptor mu 1
[9] = biological target: T3, Cysteinyl leukotriene receptor 1 (Cavia porcellus, UniProt Q2NNR5); experiment: Displacement of [3H]leukotriene D4 (LTD4) from receptor in guinea pig lung membranes; type: cell membranes, Membrane
T3 sequence (Q2NNR5 whole entry): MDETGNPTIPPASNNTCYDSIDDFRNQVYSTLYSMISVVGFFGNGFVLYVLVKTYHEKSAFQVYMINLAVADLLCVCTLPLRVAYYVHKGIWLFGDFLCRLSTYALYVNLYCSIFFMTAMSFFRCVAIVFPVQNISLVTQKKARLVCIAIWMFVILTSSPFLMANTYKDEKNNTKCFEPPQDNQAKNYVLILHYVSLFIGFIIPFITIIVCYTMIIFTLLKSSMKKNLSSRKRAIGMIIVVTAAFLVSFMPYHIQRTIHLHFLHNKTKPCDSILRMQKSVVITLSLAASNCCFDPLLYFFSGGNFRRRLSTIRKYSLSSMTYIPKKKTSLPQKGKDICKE

[10] = Inhibitory concentration against 5-hydroxytryptamine 1 receptor
[11] = biological target: Serotonin 2 (5-HT2) receptor (Homo sapiens, UniProt P41595+P28223+P28335); experiment: Inhibitory concentration against 5-hydroxytryptamine 2 receptor; type: protein assay
[12] = test system: Cavia porcellus; experiment: In vivo bronchoprotective effect against […] induced bronchoconstriction in guinea pigs after intravenous administration; type: functional
[13] = biological target: Histamine H1 receptor (Homo sapiens, UniProt P35367); experiment: Inhibitory concentration against H1 receptor
[14] = biological target: Muscarinic acetylcholine receptor; experiment: Inhibitory concentration against muscarinic receptor; type: protein assay
[15] = biological target: T4, Adrenergic receptor alpha-2 (Homo sapiens, UniProt P08913+P18825+P18089); experiment: Inhibitory concentration against Alpha-2 adrenergic receptor; type: protein assay
T4 sequence (P08913 whole entry): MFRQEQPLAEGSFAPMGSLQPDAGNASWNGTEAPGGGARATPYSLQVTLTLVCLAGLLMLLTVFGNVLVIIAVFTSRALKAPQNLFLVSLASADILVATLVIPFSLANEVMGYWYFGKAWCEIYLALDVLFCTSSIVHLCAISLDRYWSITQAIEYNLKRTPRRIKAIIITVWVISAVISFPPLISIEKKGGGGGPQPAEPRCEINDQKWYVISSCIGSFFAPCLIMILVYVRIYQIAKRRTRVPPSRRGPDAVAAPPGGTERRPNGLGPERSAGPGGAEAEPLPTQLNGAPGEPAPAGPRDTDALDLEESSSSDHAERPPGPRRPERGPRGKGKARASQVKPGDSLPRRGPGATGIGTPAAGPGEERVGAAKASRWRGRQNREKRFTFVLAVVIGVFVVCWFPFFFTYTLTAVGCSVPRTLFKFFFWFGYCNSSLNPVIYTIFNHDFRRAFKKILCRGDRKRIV
T4 sequence (P18825 whole entry): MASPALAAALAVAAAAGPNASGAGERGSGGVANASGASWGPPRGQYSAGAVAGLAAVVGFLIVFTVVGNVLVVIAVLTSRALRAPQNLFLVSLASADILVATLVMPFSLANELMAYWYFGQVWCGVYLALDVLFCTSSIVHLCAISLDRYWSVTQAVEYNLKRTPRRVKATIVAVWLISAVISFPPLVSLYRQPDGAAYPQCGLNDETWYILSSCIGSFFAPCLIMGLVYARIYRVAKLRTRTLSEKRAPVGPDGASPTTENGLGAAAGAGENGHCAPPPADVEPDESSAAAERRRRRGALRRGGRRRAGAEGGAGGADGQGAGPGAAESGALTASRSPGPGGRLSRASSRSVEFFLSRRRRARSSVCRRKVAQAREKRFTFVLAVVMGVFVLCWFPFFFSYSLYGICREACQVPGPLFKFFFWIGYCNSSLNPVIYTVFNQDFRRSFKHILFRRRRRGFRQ
T4 sequence (P18089 whole entry): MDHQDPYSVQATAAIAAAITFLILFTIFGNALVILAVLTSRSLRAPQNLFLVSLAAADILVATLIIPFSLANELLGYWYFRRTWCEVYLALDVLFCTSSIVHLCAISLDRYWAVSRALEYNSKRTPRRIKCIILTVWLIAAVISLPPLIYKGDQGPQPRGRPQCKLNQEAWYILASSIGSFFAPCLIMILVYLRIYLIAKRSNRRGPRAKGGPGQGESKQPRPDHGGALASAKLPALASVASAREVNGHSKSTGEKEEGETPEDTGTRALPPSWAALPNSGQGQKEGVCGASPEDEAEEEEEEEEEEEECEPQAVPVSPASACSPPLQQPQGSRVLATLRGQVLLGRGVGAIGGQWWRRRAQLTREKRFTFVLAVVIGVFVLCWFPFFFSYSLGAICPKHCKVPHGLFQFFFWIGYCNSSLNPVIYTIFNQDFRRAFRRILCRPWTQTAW

[16] = test system: Cavia porcellus; experiment: In vivo bronchoprotective effect against PAF induced bronchoconstriction in guinea pigs after intravenous administration; type: functional
[17] = biological target: T3, Cysteinyl leukotriene receptor 1; experiment: Displacement of [3H]LTD4 from receptor in guinea pig lung membranes; type: cell membranes, Membrane

Mu-type opioid receptor, sequence (P35372 whole entry): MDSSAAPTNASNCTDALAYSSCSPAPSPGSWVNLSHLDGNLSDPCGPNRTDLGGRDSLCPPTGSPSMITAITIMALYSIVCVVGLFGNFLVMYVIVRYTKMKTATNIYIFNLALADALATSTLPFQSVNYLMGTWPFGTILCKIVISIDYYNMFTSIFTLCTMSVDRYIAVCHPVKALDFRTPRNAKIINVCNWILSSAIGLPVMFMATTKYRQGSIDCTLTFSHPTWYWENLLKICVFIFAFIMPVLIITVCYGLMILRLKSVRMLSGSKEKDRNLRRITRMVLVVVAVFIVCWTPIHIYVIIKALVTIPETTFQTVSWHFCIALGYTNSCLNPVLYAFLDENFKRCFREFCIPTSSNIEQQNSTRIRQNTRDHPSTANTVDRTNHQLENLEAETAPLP
D(2) dopamine receptor, sequence (P14416 whole entry): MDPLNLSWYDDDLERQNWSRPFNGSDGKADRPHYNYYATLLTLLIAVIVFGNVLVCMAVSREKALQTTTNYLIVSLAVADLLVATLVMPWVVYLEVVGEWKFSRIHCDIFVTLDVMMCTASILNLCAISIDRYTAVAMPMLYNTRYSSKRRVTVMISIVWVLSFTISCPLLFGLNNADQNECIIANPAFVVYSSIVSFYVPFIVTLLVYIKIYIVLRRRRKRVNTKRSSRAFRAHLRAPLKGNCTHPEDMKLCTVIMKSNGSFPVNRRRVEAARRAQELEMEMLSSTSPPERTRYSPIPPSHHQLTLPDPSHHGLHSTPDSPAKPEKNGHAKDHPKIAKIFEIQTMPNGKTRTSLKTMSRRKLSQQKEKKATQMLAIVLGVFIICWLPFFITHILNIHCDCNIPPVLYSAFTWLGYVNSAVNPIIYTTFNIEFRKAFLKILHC
Histamine H1 receptor, sequence (P35367 whole entry): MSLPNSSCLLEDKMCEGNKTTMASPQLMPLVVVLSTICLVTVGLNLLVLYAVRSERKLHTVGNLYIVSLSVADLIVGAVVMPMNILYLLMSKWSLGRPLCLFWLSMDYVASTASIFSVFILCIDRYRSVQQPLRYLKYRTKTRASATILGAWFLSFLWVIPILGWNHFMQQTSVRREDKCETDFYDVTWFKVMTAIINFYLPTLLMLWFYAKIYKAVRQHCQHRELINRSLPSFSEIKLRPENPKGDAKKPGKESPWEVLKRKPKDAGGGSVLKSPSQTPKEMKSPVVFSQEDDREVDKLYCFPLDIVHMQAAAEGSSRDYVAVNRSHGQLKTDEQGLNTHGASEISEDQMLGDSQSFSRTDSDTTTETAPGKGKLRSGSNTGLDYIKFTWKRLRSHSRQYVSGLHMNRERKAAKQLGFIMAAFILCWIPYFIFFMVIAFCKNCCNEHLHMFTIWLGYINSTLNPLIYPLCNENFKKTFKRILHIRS

IC50 [1] [µM] | IC50 [2] [µM] | IC50 [3] [µM] | IC50 [4] [µM] | IC50 [6] [µM] | IC50 [8] [µM] | Ki [9] [µM] | IC50 [10] [µM] | IC50 [11] [µM] | IC50 [13] [µM] | IC50 [14] [µM] | IC50 [15] [µM] | Ki [17] [µM] | Structure (SMILES) | ED50 [5] [mg/kg] | ED50 [7] [mg/kg] | ED50 [12] [mg/kg] | ED50 [16] [mg/kg]
> 10 | > 10 | > 10 | > 10 | > 10 | > 10 |  |  |  |  |  |  |  | COc1cc(C(=O)NS(=O)(=O)c2ccccc2C)ccc1Cc1cn(C)c2ccc(NC(=O)OC3CCCC3)cc12 [ZAFIRLUKAST] | 3.5 | 0.21 |  | 
 |  |  |  |  |  | 0.073 |  |  |  |  |  |  | Cc1nc2cnccc2n1-c1ccc(OCc2cccc(/C=C/c3ccc4ccccc4n3)c2)cc1 |  |  |  | 
> 10 | > 10 | > 10 | > 10 | > 10 | > 10 | 0.034 | > 10 | > 10 | > 10 | > 10 | > 10 |  | Cc1nc2cnccc2n1-c1ccc(OCc2cccc(/C=C/c3nc4cc(F)ccc4s3)c2)cc1 | 1.8 | 0.46 | 0.16 | 
 |  |  |  |  |  | > 30 |  |  |  |  |  |  | CCOC(=O)C1=C(c2ccc(-n3c(C)nc4cnccc43)cc2)NC(C)=C(C(=O)Nc2ccccn2)C1c1ccccc1Cl (configuration not stated) | 1.9 |  | 0.33 | 
> 10 | > 10 | > 10 | > 10 | > 10 | > 10 |  | > 10 | > 10 | > 10 | > 10 | > 10 | 0.02 | Cc1nc2cnccc2n1-c1ccc(OCc2cccc(/C=C/c3ccc4ccc(Cl)cc4n3)c2)cc1 | 1.7 | 0.27 |  | 0.26
